Measurements from US9926304B2, “1-(arylmethyl)quinazoline-2,4(1H,3H)-diones as PARP inhibitors and the use thereof” (Impact Therapeutics, Inc., priority 2011, dated 2018).
Counter-ions that a name gives are not always drawn. Like-named read-outs stand apart in the source and are kept apart here.

What was measured:
[1] = tested on: Human breast cancer cell line T47D; experiment: Cell based caspase-3 activity assay: potentiation of MMS induced apoptosis; details: T47D cells, 11.1 μg/ml MMS, 24 hours, intracellular caspase-3 activity, read-out: EC50 (nM), potentiation of the apoptosis inducing activity of MMS
Summary of the method: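 T47D cells were exposed for 24 h to compound plus a minimally apoptotic MMS dose (medium containing 11.1 μg/ml MMS). Lysates were incubated 3 h at 37 °C with (Ac-DEVD)2-R110 caspase-3 substrate (20 μM in added buffer) and read at ex 496/em 520 nm. EC50 came from a sigmoidal fit of RFU versus log concentration.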

[2] = tested on: SW620 human colorectal cancer cells; experiment: MTT based cell viability assay: potentiation of the growth inhibiting activity of MMS
[3] = Homo sapiens, SW-620, 120 h, read-out: IC50 (nM), potentiation of the growth inhibiting activity of MMS, SW620 cells, 1.7 μg/ml MMS, 5 days (120 hours), MTT

| Compound | EC50 ([1]; Homo sapiens, T47D, 24 h) [nM] | IC50 [2, 3] [nM] | other results |
| --- | --- | --- | --- |
| O=C(c1ccc(Cl)c(Cn2c(=O)[nH]c(=O)c3ccccc32)c1)N1CCN(C(=O)C2CCCCC2)CC1 [Example 57, 1-(6-Chloro-3-(4-(cyclohexylcarbonyl)piperazine-1-carbonyl)benzyl)quinazoline-2,4(1H,3H)-dione] | 22 | 46 |  |
| O=C(c1ccsc1)N1CCN(C(=O)c2cccc(Cn3c(=O)[nH]c(=O)c4ccccc43)c2)CC1 [Example 35, 1-(3-(4-(Thiophene-3-carbonyl)piperazine-1-carbonyl)benzyl)quinazoline-2,4(1H,3H)-dione] | 238 | 265 |  |
| O=C(c1cccc(Cn2c(=O)[nH]c(=O)c3ccccc32)c1)N1CCN(C(=O)c2ccco2)CC1 [Example 33, 1-(3-(4-(Furan-2-carbonyl)piperazine-1-carbonyl)benzyl)quinazoline-2,4(1H,3H)-dione] | 96 | 130 |  |
| O=C(c1cc(Cn2c(=O)[nH]c(=O)c3ccccc32)ccc1Cl)N1CCN(C(=O)C2CCCCC2)CC1 [Example 66, 1-(4-Chloro-3-(4-(cyclohexylcarbonyl)piperazine-1-carbonyl)benzyl)quinazoline-2,4(1H,3H)-dione] | 604 | 991 |  |
| 1-(3-(5-Bromopyrimidin-2-aminocarbamoyl)-4-fluorobenzyl)-5-fluoroquinazoline-2,4(1H,3H)-dione [Example 205] |  |  | EC50 [1]: > 10000 nM; IC50 ([2]; read-out: IC50 (nM), potentiation of the growth inhibiting activity of MMS, SW620 cells, 1.7 μg/ml MMS, 5 days (120 hours), MTT): > 10000 nM |
| O=C(c1ccc(F)c(Cn2c(=O)[nH]c(=O)c3cc(Cl)ccc32)c1)N1CCN(C(=O)C2CCCCC2)CC1 [Example 125, 6-Chloro-1-(3-(4-(cyclohexylcarbonyl)piperazine-1-carbonyl)-6-fluorobenzyl)quinazoline-2,4(1H,3H)-dione] | 22 | 6.7 |  |
| O=C(c1ccncc1)N1CCN(C(=O)c2cccc(Cn3c(=O)[nH]c(=O)c4ccccc43)c2)CC1 [Example 38, 1-(3-(4-(Pyridine-4-carbonyl)piperazine-1-carbonyl)benzyl)quinazoline-2,4(1H,3H)-dione] | 267 | > 10000 |  |
| O=C(c1cc(Cn2c(=O)[nH]c(=O)c3ccccc32)ccc1F)N1CCN(c2ncccn2)CC1 [Example 192, 1-(4-Fluoro-3-(4-(pyrimidin-2-yl)piperazine-1-carbonyl)benzyl)quinazoline-2,4(1H,3H)-dione hydrochloride] |  |  | EC50 ([1]; hydrochloride): 3.1 nM; IC50 ([2]; read-out: IC50 (nM), potentiation of the growth inhibiting activity of MMS, SW620 cells, 1.7 μg/ml MMS, 5 days (120 hours), MTT, hydrochloride): 79 nM |
| O=C(c1cccc(Cn2c(=O)[nH]c(=O)c3ccccc32)c1)N1CCN(C(=O)c2ccccn2)CC1 [Example 37, 1-(3-(4-(Pyridine-2-carbonyl)piperazine-1-carbonyl)benzyl)quinazoline-2,4(1H,3H)-dione] | 1910 | > 10000 |  |
| O=C(c1ccoc1)N1CCN(C(=O)c2cccc(Cn3c(=O)[nH]c(=O)c4ccccc43)c2)CC1 [Example 34, 1-(3-(4-(Furan-3-carbonyl)piperazine-1-carbonyl)benzyl)quinazoline-2,4(1H,3H)-dione] | 104 | 294 |  |
| O=C(c1cccc(Cn2c(=O)[nH]c(=O)c3cc([N+](=O)[O-])ccc32)c1)N1CCN(C(=O)C2CCCCC2)CC1 [Example 92, 1-(3-(4-(Cyclohexylcarbonyl)piperazine-1-carbonyl)benzyl)-6-nitroquinazoline-2,4(1H,3H)-dione] | 2930 | > 10000 |  |
| O=C(c1cccc(Cn2c(=O)[nH]c(=O)c3ccccc32)c1)N1CCN(c2nccs2)CC1 [Example 72, 1-(3-(4-(Thiazol-2-yl)piperazine-1-carbonyl)benzyl)quinazoline-2,4(1H,3H)-dione] | 41 | 80 |  |
| O=C(c1cccc(Cn2c(=O)[nH]c(=O)c3ccccc32)c1F)N1CCN(C(=O)C2CCCC2)CC1 [Example 62, 1-(3-(4-(Cyclopentylcarbonyl)piperazine-1-carbonyl)-2-fluorobenzyl)quinazoline-2,4(1H,3H)-dione] | 379 | 816 |  |
| O=C(c1cccc(Cn2c(=O)[nH]c(=O)c3ccccc32)c1)N1CCN(C2CCCCC2)CC1 [Example 5, 1-(3-(4-Cyclohexylpiperazine-1-carbonyl)benzyl)quinazoline-2,4(1H,3H)-dione] | 450 | 5360 |  |
| Cc1ccc2c(=O)[nH]c(=O)n(Cc3cccc(C(=O)N4CCN(c5ncccn5)CC4)c3)c2c1 [Example 80, 7-Methyl-1-(3-(4-(pyrimidin-2-yl)piperazine-1-carbonyl)benzyl)quinazoline-2,4(1H,3H)-dione] | 1190 | > 10000 |  |
| O=C(O)c1cccc(Cn2c(=O)[nH]c(=O)c3ccccc32)c1 [Example 2, 1-(3-Carboxybenzyl)quinazoline-2,4(1H,3H)-dione] | > 10000 | > 10000 |  |

Now from value to compound, other results behind:

| EC50 ([1]; Homo sapiens, T47D, 24 h) [nM] | IC50 [2, 3] [nM] | Compound | other results |
| --- | --- | --- | --- |
| 37 | 103 | O=C(c1cccc(Cn2c(=O)[nH]c(=O)c3cccc(F)c32)c1)N1CCN(c2ncccn2)CC1 [Example 218, 8-Fluoro-1-(3-(4-(pyrimidin-2-yl)piperazine-1-carbonyl)benzyl)quinazoline-2,4(1H,3H)-dione] |  |
| 6.1 | 13 | O=C(c1ccc(F)c(Cn2c(=O)[nH]c(=O)c3cc(F)ccc32)c1)N1CCN(C(=O)C2CCC2)CC1 [Example 183, 1-(3-(4-(Cyclobutylcarbonyl)piperazine-1-carbonyl)-6-fluorobenzyl)-6-fluoroquinazoline-2,4(1H,3H)-dione] |  |
| > 10000 | > 10000 | O=C(c1cccc(Cn2c(=O)[nH]c(=O)c3ccc(C(F)(F)F)cc32)c1)N1CCN(c2ncccn2)CC1 [Example 206, 1-(3-(4-(Pyrimidin-2-yl)piperazine-1-carbonyl)benzyl)-7-(trifluoromethyl)quinazoline-2,4(1H,3H)-dione] |  |
| 30 | 27 | O=C(c1ccc(Cl)c(Cn2c(=O)[nH]c(=O)c3cc(F)ccc32)c1)N1CCN(c2ncccn2)CC1 [Example 187, 1-(6-Chloro-3-(4-(pyrimidin-2-yl)piperazine-1-carbonyl)benzyl)-6-fluoroquinazoline-2,4(1H,3H)-dione] |  |
| 1.4 | 3.1 | O=C(c1cc(Cn2c(=O)[nH]c(=O)c3cc(F)ccc32)ccc1F)N1CCN(C(=O)C2CCC2)CC1 [Example 180, 1-(3-(4-(Cyclobutylcarbonyl)piperazine-1-carbonyl)-4-fluorobenzyl)-6-fluoroquinazoline-2,4(1H,3H)-dione] |  |
| 5.2 | 18 | O=C(c1ccc(F)c(Cn2c(=O)[nH]c(=O)c3cc(F)ccc32)c1)N1CCN(C(=O)c2cccs2)CC1 [Example 151, 6-Fluoro-1-(6-fluoro-3-(4-(thiophene-2-carbonyl)piperazine-1-carbonyl)benzyl)quinazoline-2,4(1H,3H)-dione] |  |
| 274 | 1110 | O=C(c1cccc(Cn2c(=O)[nH]c(=O)c3cccc(Cl)c32)c1)N1CCN(c2ncccn2)CC1 [Example 224, 8-Chloro-1-(3-(4-(pyrimidin-2-yl)piperazine-1-carbonyl)benzyl)quinazoline-2,4(1H,3H)-dione] |  |
| 13 | 12 | O=C(c1cccc(Cn2c(=O)[nH]c(=O)c3cc(F)ccc32)c1)N1CCN(C(=O)c2cccs2)CC1 [Example 141, 6-Fluoro-1-(3-(4-(thiophene-2-carbonyl)piperazine-1-carbonyl)benzyl)quinazoline-2,4(1H,3H)-dione] |  |
| 220 | 648 | Cc1cccc2c1c(=O)[nH]c(=O)n2Cc1cccc(C(=O)N2CCN(c3ncccn3)CC2)c1 [Example 159, 5-Methyl-1-(3-(4-(pyrimidin-2-yl)piperazine-1-carbonyl)benzyl)quinazoline-2,4(1H,3H)-dione] |  |
| 49 | 18 | O=C(c1cccc(Cn2c(=O)[nH]c(=O)c3c(F)cccc32)c1)N1CCN(C(=O)C2CCCCC2)CC1 [Example 129, 1-(3-(4-(Cyclohexylcarbonyl)piperazine-1-carbonyl)benzyl)-5-fluoroquinazoline-2,4(1H,3H)-dione] |  |
| > 10000 | > 10000 | O=C(c1cccc(-n2c(=O)[nH]c(=O)c3ccccc32)c1)N1CCN(c2ncccn2)CC1 [Example 221, 1-(3-(4-(Pyrimidin-2-yl)piperazine-1-carbonyl)phenyl)quinazoline-2,4(1H,3H)-dione] |  |
| 18 | 49 | O=C(c1cccc(Cn2c(=O)[nH]c(=O)c3c(F)cccc32)c1)N1CCN(C(=O)C2CCC2)CC1 [Example 165, 1-(3-(4-(Cyclobutylcarbonyl)piperazine-1-carbonyl)benzyl)-5-fluoroquinazoline-2,4(1H,3H)-dione] |  |
| > 10000 | > 10000 | O=C(c1cccc(Cn2c(=O)[nH]c3c(Cl)cccc3c2=O)c1)N1CCN(c2ncccn2)CC1 [Example 223, 8-Chloro-3-(3-(4-(pyrimidin-2-yl)piperazine-1-carbonyl)benzyl)quinazoline-2,4(1H,3H)-dione] |  |
| 590 | 58 | O=C(c1cc(Cn2c(=O)[nH]c(=O)c3c(F)cccc32)ccc1F)N1CCN(c2ccccc2)CC1 [Example 213, 5-Fluoro-1-(4-fluoro-3-(4-phenylpiperazine-1-carbonyl)benzyl)quinazoline-2,4(1H,3H)-dione] |  |
